Reference: the NIST ThermoML archive (doi:10.1016/j.jct.2011.02.008)

Assay: xn = mol fraction of the nth substance listed
Conditions: Liquid, Vibrating tube method

COC(=O)c1ccccc1 [methyl benzoate] + CCCCCCO
mass density [kg/m3]
Conditions	x1 = 0.1004	x1 = 0.2007	x1 = 0.3007	x1 = 0.4013	x1 = 0.5005	x1 = 0.6009	x1 = 0.7	x1 = 0.8008	x1 = 0.9009
278.15 K, 100 kPa	856.6	883.8	911.4	938.8	966	993.4	1020.3	1047.7	1075.1
278.15 K, 1000 kPa	857.1	884.4	911.9	939.4	966.5	993.9	1020.8	1048.2	1075.5
278.15 K, 5000 kPa	859.7	886.9	914.4	941.8	968.9	996.3	1023.2	1050.6	1077.9
278.15 K, 10000 kPa	862.7	889.9	917.3	944.8	971.9	999.2	1026	1053.4	1080.7
278.15 K, 15000 kPa	865.6	892.8	920.3	947.6	974.7	1002	1028.9	1056.3	1083.5
278.15 K, 20000 kPa	868.5	895.6	923.1	950.4	977.5	1004.7	1031.6	1059	1086.2
278.15 K, 25000 kPa	871.2	898.3	925.8	953.1	980.2	1007.4	1034.2	1061.6	1088.7
278.15 K, 30000 kPa	873.8	901	928.4	955.8	982.8	1010	1036.8	1064.2	1091.3
278.15 K, 35000 kPa	876.5	903.6	931	958.3	985.4	1012.6	1039.4	1066.7	1093.8
278.15 K, 40000 kPa	879	906.1	933.6	960.9	987.9	1015.1	1041.9	1069.2	1096.3
278.15 K, 45000 kPa	881.5	908.6	936	963.3	990.4	1017.6	1044.3	1071.7	1098.7
278.15 K, 50000 kPa	883.9	911.1	938.5	965.8	992.8	1020	1046.7	1074	1101.1
278.15 K, 55000 kPa	886.3	913.4	940.8	968.1	995.2	1022.3	1049.1	1076.4	1103.5
278.15 K, 60000 kPa	888.4	915.6	943	970.3	997.3	1024.5	1051.4	1078.7	1105.6
288.15 K, 100 kPa	849.1	876	903.2	930.4	957.3	984.4	1011.1	1038.4	1065.5
288.15 K, 1000 kPa	849.7	876.6	903.8	931	957.9	985	1011.7	1039	1066
288.15 K, 5000 kPa	852.3	879.2	906.4	933.6	960.4	987.5	1014.2	1041.4	1068.5
288.15 K, 10000 kPa	855.5	882.4	909.5	936.7	963.5	990.6	1017.2	1044.5	1071.5
288.15 K, 15000 kPa	858.5	885.5	912.6	939.7	966.5	993.6	1020.2	1047.4	1074.4
288.15 K, 20000 kPa	861.5	888.4	915.5	942.6	969.4	996.4	1023	1050.2	1077.2
288.15 K, 25000 kPa	864.3	891.2	918.3	945.4	972.2	999.3	1025.8	1053	1080
288.15 K, 30000 kPa	867.1	894	921.1	948.2	975	1002	1028.5	1055.7	1082.6
288.15 K, 35000 kPa	869.8	896.7	923.8	950.9	977.7	1004.6	1031.2	1058.3	1085.2
288.15 K, 40000 kPa	872.4	899.3	926.4	953.5	980.2	1007.2	1033.8	1060.9	1087.8
288.15 K, 45000 kPa	875	901.8	929	956	982.8	1009.8	1036.3	1063.4	1090.3
288.15 K, 50000 kPa	877.5	904.4	931.5	958.5	985.3	1012.3	1038.8	1065.9	1092.8
288.15 K, 55000 kPa	879.9	906.8	933.9	961	987.8	1014.7	1041.3	1068.3	1095.2
288.15 K, 60000 kPa	882.3	909.2	936.2	963.2	990	1017	1043.7	1070.6	1097.5
298.15 K, 100 kPa	841.5	868.2	895.1	922	948.6	975.5	1002	1029.1	1056
298.15 K, 1000 kPa	842.2	868.8	895.7	922.6	949.2	976.1	1002.6	1029.7	1056.6
298.15 K, 5000 kPa	844.9	871.6	898.4	925.3	951.9	978.8	1005.3	1032.3	1059.2
298.15 K, 10000 kPa	848.3	874.9	901.7	928.5	–	–	–	–	–
